Columns and labels:
[1] = test system: OLIG2-GFP knock-in hESC reporter line; test: Flow cytometric quantification of OLIG2-GFP expression under RA/SHH/SAG conditions; type: cell-based, human
Procedure: FIGS. 2A-2D show the requirement for RA and SHH to derive OLIG2^+ progenitor cells. […] RA at a concentration of 100 nM from day 0 results in the highest yield of GFP^+ cells. […] Negative: hESC line RUES1. […] Error bars are SEM (N=3). […] Only GFP^+ cells form spheres, providing enrichment to the GFP^+ population.
We used an OLIG2-GFP knock-in hESC reporter line (Liu et al., 2011) to track OLIG2^+ progenitors by live fluorescent imaging. First, we induced PAX6^+ cells using dual inhibition of SMAD signaling in adherent cultures. Chambers, S. M. et al., Nat Biotechnol. 27:275-80 (2009). Next, to mimic the embryonic spinal cord environment, we applied different concentrations of RA and/or SHH at various times and quantified OLIG2-GFP expression through flow cytometry (FIG. 2A).
At day 12, cells were detached and placed into low-attachment plates to promote their aggregation into spheres. The minimum number of cells required to form a sphere was at least 100 cells, and we noted that the majority of cells in the spheres were GFP^+. To investigate this further, we sorted day 12 cultures for GFP, and observed that only the GFP^+ cells formed aggregates (FIG. 2C).
At the day of differentiation induction (day 0), medium was switched to Neural Induction Medium, which is mTeSR Custom Medium (Stemcell Technologies) containing the small molecules SB431542 10 μM (Stemgent) and LDN193189 250 nM (Stemgent), as well as 100 nM all-trans-RA (Sigma-Aldrich; St. Louis, Mo.). mTeSR Custom Medium has the same composition as the commercially available mTeSR-1 medium but without five factors that sustain pluripotency, namely lithium chloride, GABA, pipecolic acid, bFGF, and TGFβ1 (Stemcell Technologies). […]
(§1) Cells were enzymatically harvested by ACCUTASE® treatment for 25 min at 37° C. to obtain a single cell suspension. Cells were then re-suspended in 100 μl of their respective medium containing the appropriate amount of either primary antibody or fluorescence-conjugated antibodies and were incubated on ice for 30 minutes shielded from light. […] Flow cytometry data were analyzed using BD FACSDiva™ software.

[2] = test system: O4^+ cells; test: FACS-analysis for O4+ cells at day 75 of differentiation; type: cell-based, human; details: RA only vs RA and SAG in the first 12 days
Procedure: FIGS. 3A-3C show SHH and dual SMAD inhibition requirements for OLIG2^+ progenitors. […] Endogenous SHH levels are higher in the samples that were not exposed to SHH/SAG. Error bars are SEM (N=3). […] Negative Control: APC-conjugated secondary antibody only.
Spheres were plated on pO/L plates, as described above, in PDGF Medium at day 30, changing ⅔ of the PDGF Medium every other day until day 75 of differentiation. The appearance of O4^+ cells was assessed by live O4 staining from day 55 onwards (FIG. 6). At day 75, O4^+ OPCs could be isolated by FACS (FIG. 7I). Alternatively, for terminal oligodendrocyte differentiation (FIG. 7G-7H), cells were cultured in Glial Medium from day 75, changing ⅔ of the medium every 3 days for two weeks.
as §1, with “light. When secondary antibodies were used, primary antibodies were washed with PBS and secondary antibodies were applied for 30 minutes on ice.” for “light.”

## CC1=C(/C=C/C(C)=C/C=C/C(C)=C/C(=O)O)C(C)(C)CCC1 [RA, all trans retinoic acid]
[1]; 100 nM RA from the beginning of induction, no exogenous SHH, OLIG2-GFP flow cytometry, day 14
  OLIG2^+ progenitors generated: 40.6%
[1]; RA 100 nM from day 0, day 14 of differentiation
  Yield of GFP^+ cells under different RA and SHH conditions: highest yield

## CN[C@H]1CC[C@H](N(Cc2cccc(-c3ccncc3)c2)C(=O)c2sc3ccccc3c2Cl)CC1 [SAG, 3-chloro-N-[(1r,4r)-4-(methylamino)cyclohexyl]-N-[3-(pyridin-4-yl)benzyl]benzo[b]thiophene-2-carboxamide]
[2]
  Decrease in the O4^+ population in cells not provided with SAG: 56%
[1]; SAG replacing recombinant human SHH from day 8, with 100 nM RA from day 0
  OLIG2^+ progenitors yield: 70.1%

— patent publication US11814648B2, “Functional oligodendrocytes derived from pluripotent stem cells and methods of making and using the same” (New York Stem Cell Foundation, Inc., priority 2014, dated 2023)
